Values quoted from earlier work, collected in publication PMC11949389 (Polish Journal of Microbiology, 2025).
In brackets after ≈: the same amount, converted by molar mass. Read-outs that look alike come from different tables or passages of the source.

Assays:
Enterococcus sp. = conditions: ref Caballero Gómez et al. 2022
Staphylococcus sp. = conditions: ref Caballero Gómez et al. 2022
Staphylococcus aureus [1] = system: Staphylococcus aureus
[2] = system: Mupirocin-susceptible Staphylococcus aureus; conditions: ref Kwiatkowski et al. 2019
[3] = system: Mupirocin-resistant Staphylococcus aureus; conditions: ref Kwiatkowski et al. 2019
Acinetobacter baumannii [4] = conditions: combined with ciprofloxacin, ref Aleksic Sabo et al. (2021)
Pseudomonas sp. = conditions: ref Caballero Gómez et al. 2022
Vibrio anguillarum = conditions: ref Rossi et al. 2021
Vibrio harveyi = conditions: ref Rossi et al. 2021
Candida albicans [5] = system: Candida albicans
Candida auris [6] = conditions: Candida auris; ref Shaban et al. 2020
Candida glabrata = conditions: Candida glabrata; ref Sharifzadeh et al. 2019; Iraji et al. 2020; Biernasiuk et al. 2022; Stringaro et al. 2022
Candida tropicalis = conditions: with voriconazole, C. tropicalis isolates; ref Sharifzadeh and Shokri (2021)
Staphylococcus aureus [7] = system: Staphylococcus aureus; remark: listed apart in the source
[8] = system: Methicillin-resistant Staphylococcus aureus; conditions: for Mechanisms of action: Methicillin-resistant Staphylococcus aureus
Acinetobacter baumannii [9] = conditions: ref Choudhary et al. 2022
[10] = system: Carbapenem-resistant Klebsiella pneumoniae (CRKP); conditions: ref Qian et al. 2020
Candida albicans [11] = conditions: ref Shaban et al. 2020
Candida auris [12] = conditions: ref Shaban et al. 2020
[13] = system: Vibrio anguillarum, and Vibrio harveyi; conditions: ref Rossi et al. (2021)
[14] = system: Singapore grouper iridovirus (SGIV); conditions: ref Wang et al. (2024)
[15] = system: carbapenem-resistant Klebsiella pneumoniae (CRKP) strains; conditions: CRKP; ref Qian et al. 2020
Streptococcus mutans = conditions: ref Jafri et al. (2019)

For `C=CCc1ccc(O)c(OC)c1` [Eugenol], the MIC/Sensitivity (Enterococcus sp.) is given as 200 to 450 µg/mL, the MIC/Sensitivity (Staphylococcus sp.) is given as 300 to 400 µg/mL and the MIC (Staphylococcus aureus [1]; S. aureus, ref Sharma et al. (2023)) is given as 500–1,000 μg/ml. The MIC/Sensitivity (Staphylococcus aureus [1]; Staphylococcus aureus, ref Kwiatkowski et al. 2020, Sayout et al. 2020, Sousa Silveira et al. 2020, Macêdo et al. 2022, Noumi et al. 2023, Sharma et al. 2023) was 24 to 11100 µg/mL, the MIC/Sensitivity [2] was 2080 µg/mL (≈ 12.7 mM) and the MIC/Sensitivity [3] was 8340 µg/mL (≈ 50.8 mM). For the same compound, the FICI (Acinetobacter baumannii [4]) was 0.25–0.32, the MIC/Sensitivity (Pseudomonas sp.) was 300 to 400 µg/mL and the MIC/Sensitivity (Vibrio anguillarum) was 308696 µg/mL (≈ 1880 mM). The MIC/Sensitivity (Vibrio harveyi) was 308696 µg/mL (≈ 1880 mM), the “planktonic MIC” value (Candida albicans [5]; C. albicans, ref Jafri et al. (2019)) was 200 µg/mL and the MIC/Sensitivity (Candida albicans [5]; Candida albicans, ref Sharifzadeh et al. 2019, Iraji et al. 2020, Shaban et al. 2020, Stringaro et al. 2022, Biernasiuk et al. 2022) was 500 to 2000 µg/mL. For the same compound, the MIC/Sensitivity (Candida auris [6]) was 625 µg/mL (≈ 3.81 mM), the MIC/Sensitivity (Candida glabrata) was 1000 to 2000 µg/mL and the MIC/Sensitivity (Candida krusei; Candida krusei, ref Sharifzadeh et al. 2019, Iraji et al. 2020, Biernasiuk et al. 2022, Stringaro et al. 2022) was 250 to 1000 µg/mL. The FICI (Candida krusei; with voriconazole, C. krusei isolates, ref Sharifzadeh and Shokri (2021)) was 0.19–0.63, the FICI (Candida tropicalis) was 0.25–0.88 and the Mechanisms of action (Staphylococcus aureus [7]; ref Macêdo et al. 2022) was “• Inhibition of efflux pump”. The Mechanisms of action (Staphylococcus aureus [7]; ref Mastoor et al. 2022) was “• Gene expression reduction linked to intracellular adhesion”, the Mechanisms of action (Staphylococcus aureus [7]; ref Muniz et al. 2021) was “• Inhibition of norA efflux pump” and the biofilm eradication ([8]; MIC or 2 × MIC concentrations, established MRSA biofilms, ref El-Far et al. (2021)) was “effectively eradicated established MRSA biofilms”. For the same compound, the Mechanisms of action ([8]; ref Buru et al. 2022) was “• Downregulation of luxS gene • Inhibition of biofilm production • Enhancement of secondary metabolites • Upregulation of argC protein”, the Mechanisms of action ([8]; ref El-Far et al. 2021) was “• Downregulation of biofilm-related genes (sarA, icaA, icaD) • Reduction of polysaccharide accumulation and cell adhesion” and the Mechanisms of action (Acinetobacter baumannii [9]) was “• Reduction in exopolysaccharide production • Disruption and inhibition of biofilm • Downregulation of csuE gene”. For the same compound, the Mechanisms of action [10] was “• Disruption of cell membrane • Reduction in intracellular pH and ATP levels • Cell membrane hyperpolarization • Downregulation of biofilm-related genes (pgaA, luxS, wbbM, wzm) • Upregulation of mrkA gene”, the Mechanisms of action (Candida albicans [11]) was “• Reduced proteinase production” and the Mechanisms of action (Candida auris [12]) was “• Reduced proteinase production and host cell adherence”. For the same compound, the MIC [13] was 940 to 7500 µM, the “optimal concentration for inhibiting infection” value [14] was 100 µM and the MIC [15] was 200 µg/mL (≈ 1.22 mM). The “planktonic MIC” value (Streptococcus mutans) was 200 µg/mL.
